Results taken from patent US20210379035A1, “Methods Of Treating Fabry Patients Having Renal Impairment” (Amicus Therapeutics, Inc., priority 2017, published 2021).

How the values were obtained:
[1] = test system: α-Gal A; test: ERT-naïve study: WBC α-Gal A activity; assay type: in vivo, human
Experimental: (§1) One study was a 24-month trial, including a 6-month double-blind, placebo-controlled period, in 67 ERT-naïve patients. The other study was an active-controlled, 18-month trial in 57 ERT-experienced patients with a 12-month open-label extension (OLE). Both the ERT-naïve and ERT-experienced studies included Fabry patients having an eGFR of ≥30 mL/min/1.73 m^2.
(§2) A further analysis of data from these studies examined annualized change in eGFRCKD-EPI, LVMi, WBC α-Gal A activity and plasma lyso-Gb3 levels based on renal function at baseline.

[2] = test system: GL-3 inclusions per kidney interstitial capillary; test: ERT-naïve study: kidney interstitial capillary GL-3 inclusions; assay type: in vivo, human
Experimental: In the ERT-naïve study, the primary efficacy parameter was GL-3 inclusions per kidney interstitial capillary. Renal function was also evaluated by mGFRiohexol, eGFRCKD-EPI and eGFRMDRD.

[3] = test system: Fabry patients; test: eGFR (MDRD) in Fabry patient P1; assay type: in vivo, human; conditions: P1 on migalastat, moderate impairment
Experimental: (§3) Thus, two Fabry patients with renal impairment were evaluated. One patient (P1) had moderate renal impairment, while the other patient (P2) had severe renal impairment. […] The comparison with the results from the ERT-naïve study allows for comparison of PK in the Fabry population with mostly normal, but some mild and a few moderately impaired Fabry patients. None of the patients in the ERT-naïve study had severe renal impairment because these patients were excluded from the study.

[4] = test system: plasma lyso-GB3; test: ERT-experienced study: plasma lyso-Gb3; assay type: in vivo, human; conditions: Migalastat 0-18 months
Experimental: as §1
(§4) A further analysis of data from these studies examined annualized change in eGFRCKD-EPI, LVMi, WBC α-Gal A activity and plasma lyso-Gb3 levels based on renal function at baseline. The results for each renal subgroup are shown in Table 9 below, with the ERT-naïve study subgroups based on eGFRMDRD and the ERT-experienced study subgroups based on mGFRiohexol.

[5] = test system: plasma lyso-GB3; test: ERT-naïve study: plasma lyso-Gb3; assay type: in vivo, human
Experimental: as §1, §4

[6] = Plasma and urine PK in healthy volunteers and Fabry patients (single and multiple ascending dose studies); assay type: in vivo, human; conditions: for Mean percent of the dose recovered in urine: SAD study
[7] = test system: α-Gal A; test: ERT-experienced study: WBC α-Gal A activity; assay type: in vivo, human; conditions: Migalastat 0-18 months
Experimental: as §1, §2

[8] = ERT-naïve study population PK from sparse blood sampling; assay type: in vivo, human; conditions: ERT-naïve Fabry patients
Experimental: as §3

[9] = Single-dose renal impairment PK and safety study in non-Fabry subjects (Example 1); assay type: in vivo, human
Experimental: The eGFR was estimated by the Cockcroft-Gault equation per the FDA Guidance for renal impairment studies.
Volunteers were enrolled into two cohorts stratified for renal function calculated using the Cockcroft-Gault equation for creatinine clearance (CLCR). Subjects were assigned to groups based on an estimated CLCR at screening as calculated using the Cockcroft-Gault equation.
Subjects were grouped according to degree of renal dysfunction: mild (CLCR≥60 and <90 mL/min), moderate (CLCR≥30 and <60 mL/min), or severe (CLCR≥15 and <30 mL/min)

[10] = test system: Fabry patients; test: ERT-experienced study: LVMi; assay type: in vivo, human; conditions: Migalastat 0-18 months
Experimental: as §1, §4

[11] = test system: cardiac repolarization; conditions: 150 mg and 1250 mg single doses; cited from earlier work
[12] = test system: Fabry patients; test: ERT-naïve study: LVMi; assay type: in vivo, human
Experimental: as §1, §4

[13] = Migalastat→Migalastat 0-24 months, renal subgroup 30 to < 60
[14] = Migalastat→Migalastat 0-24 months, renal subgroup ≥60
[15] = Placebo→Migalastat 6-24 months, renal subgroup 30 to < 60
[16] = Placebo→Migalastat 6-24 months, renal subgroup ≥60
[17] = human, plasma, oral, 150 mg, single 150 mg migalastat HCl, non-Fabry, Mild (N = 8)
[18] = human, plasma, oral, 150 mg, single 150 mg migalastat HCl, non-Fabry, Moderate (N = 8)
[19] = human, plasma, oral, 150 mg, single 150 mg migalastat HCl, non-Fabry, Normal (N = 8)
[20] = human, plasma, oral, 150 mg, single 150 mg migalastat HCl, non-Fabry, Severe (N = 8)

- Mean percent of the dose recovered in urine ([6]; 25 mg): 32.2%
- Mean percent of the dose recovered in urine ([6]; 75 mg): 43.0%
- Mean percent of the dose recovered in urine ([6]; 225 mg): 49.3%
- Mean percent of the dose recovered in urine ([6]; 675 mg): 48.5%
- excretion ([6]; human, in vivo): primarily excreted unchanged in urine
- half-life ([6]; human, plasma, single-dose studies, oral, read-out: mean elimination half-lives (t1/2)): 3.04 to 4.79 h
- accumulation of plasma migalastat ([6]; multiple ascending dose studies): only minimal accumulation
- increase of mean Cmax and AUC0-t with dose ([6]; oral doses from 75 mg to 1250 mg): dose-proportional manner
- time to maximum concentrations ([6]; single-dose studies, oral, range 1 to 6 hrs): approximately 3 hours
- Comparison to ERT-Naïve Study PK (migalastat concentration) ([8]; Pre-dose (0 h)): 8.70 ng/mL
- concentration at 3 h ([8]; human, plasma, 3 Hrs Post): 1180 ng/mL
- concentration at 48 h ([8]; human, plasma, 48 h): 8.7 ng/mL
SMILES: OC[C@H]1NC[C@H](O)[C@@H](O)[C@H]1O [migalastat, (2R,3S,4R,5S)-2-(hydroxymethyl) piperdine-3,4,5-triol]
- WBC α-Gal A Activity (males only), change from baseline [1, 13]: +1.4 4MU/hr/mg
- WBC α-Gal A Activity (males only), change from baseline, mean ± SE [1, 14]: +1.6 ± 1.5 4MU/hr/mg
- WBC α-Gal A Activity (males only), change from baseline, mean ± SE [1, 15]: +4.0 ± 3.0 4MU/hr/mg
- WBC α-Gal A Activity (males only), change from baseline, mean ± SE [1, 16]: 5.2 4MU/h/mg
- change in kidney interstitial capillary GL-3 inclusions ([2]; baseline to month 6, eGFR<60 mL/min/1.73 m^2, n=3): −0.39
- change in kidney interstitial capillary GL-3 inclusions ([2]; baseline to month 6, eGFR≥60 mL/min/1.73 m^2, n=22): −0.30
- eGFRMDRD [3]: 32 mL/min
- Plasma lyso-Gb3, change from baseline, mean ([4]; renal subgroup 30 to < 60): +0.5 nmol/L
- Plasma lyso-Gb3, change from baseline, mean ([4]; renal subgroup ≥60): 1.9 nmol/L
- Plasma lyso-Gb3, change from baseline, mean [5, 13]: -29.0 nmol/L
- Plasma lyso-Gb3, change from baseline, mean [5, 14]: -7.7 nmol/L
- Plasma lyso-Gb3, change from baseline, mean [5, 16]: -20.0 nmol/L
- WBC α-Gal A Activity (males only), change from baseline, mean ± SE ([7]; renal subgroup 30 to < 60): +4.6 ± 2.3 4MU/hr/mg
- WBC α-Gal A Activity (males only), change from baseline, mean ± SE ([7]; renal subgroup ≥60): +5.5 ± 1.4 4MU/hr/mg
- concentration at 3 h ([9]; human, plasma, oral, 150 mg, Comparison to Example 1 Moderate Impairment (migalastat concentration), non-Fabry, moderate impairment, 3 Hrs Post): 1870 ng/mL
- concentration at 24 h ([9]; human, plasma, oral, 150 mg, Comparison to Example 1 Moderate Impairment (migalastat concentration), non-Fabry, moderate impairment, 24 Hrs Post): 239 ng/mL
- concentration at 48 h ([9]; human, plasma, oral, 150 mg, Comparison to Example 1 Moderate Impairment (migalastat concentration), non-Fabry, moderate impairment, 48 Hrs Post): 64.5 ng/mL
- concentration at 2 h ([9]; human, plasma, oral, 150 mg, Comparison to Example 1 Severe Impairment (migalastat concentration), non-Fabry, severe impairment, 2 h): 1550 ng/mL
- concentration at 24 h ([9]; human, plasma, oral, 150 mg, Comparison to Example 1 Severe Impairment (migalastat concentration), non-Fabry, severe impairment, 24 h): 770 ng/mL
- concentration at 48 h ([9]; human, plasma, oral, 150 mg, Comparison to Example 1 Severe Impairment (migalastat concentration), non-Fabry, severe impairment, 48 h): 334 ng/mL
- AUC(0-inf) [9, 17]: 14500 ng·h/mL
- AUC(0-t) [9, 17]: 14400 ng·h/mL
- Cmax [9, 17]: 2190 ng/mL
- concentration at 48 h ([9]; human, plasma, oral, 150 mg, single 150 mg migalastat HCl, non-Fabry, Mild (N = 8), read-out: C48): 9.34 ng/mL
- half-life ([9]; human, plasma, oral, 150 mg, single 150 mg migalastat HCl, non-Fabry, Mild (N = 8), read-out: t1/2 (converted)): 7.66 h
- AUC(0-inf) [9, 18]: 22500 ng·h/mL
- AUC(0-t) [9, 18]: 22100 ng·h/mL
- Cmax [9, 18]: 1870 ng/mL
- Tmax [9, 18]: 3 h
- concentration at 48 h ([9]; human, plasma, oral, 150 mg, single 150 mg migalastat HCl, non-Fabry, Moderate (N = 8), read-out: C48): 64.5 ng/mL
- half-life ([9]; human, plasma, oral, 150 mg, single 150 mg migalastat HCl, non-Fabry, Moderate (N = 8), read-out: t1/2 (converted)): 22.2 h
- AUC(0-inf) [9, 19]: 12400 ng·h/mL
- AUC(0-t) [9, 19]: 12300 ng·h/mL
- Cmax [9, 19]: 2100 ng/mL
- concentration at 48 h ([9]; human, plasma, oral, 150 mg, single 150 mg migalastat HCl, non-Fabry, Normal (N = 8), read-out: C48): 5.7 ng/mL
- half-life ([9]; human, plasma, oral, 150 mg, single 150 mg migalastat HCl, non-Fabry, Normal (N = 8), read-out: t1/2 (converted)): 6.42 h
- AUC(0-inf) [9, 20]: 56200 ng·h/mL
- AUC(0-t) [9, 20]: 53100 ng·h/mL
- Cmax [9, 20]: 2080 ng/mL
- Tmax [9, 20]: 4.27 h
- concentration at 48 h ([9]; human, plasma, oral, 150 mg, single 150 mg migalastat HCl, non-Fabry, Severe (N = 8), read-out: C48): 334 ng/mL
- half-life ([9]; human, plasma, oral, 150 mg, single 150 mg migalastat HCl, non-Fabry, Severe (N = 8), read-out: t1/2 (converted)): 32.3 h
- half-life ([9]; human, plasma, po, 150 mg, single oral 150 mg migalastat HCl, mild renal impairment, read-out: t1/2 in plasma, arithmetic mean [min, max] (converted)): 7.7 h
- half-life ([9]; human, plasma, po, 150 mg, single oral 150 mg migalastat HCl, moderate renal impairment, read-out: t1/2 in plasma, arithmetic mean [min, max] (converted)): 22.2 h
- half-life ([9]; human, plasma, po, 150 mg, single oral 150 mg migalastat HCl, normal renal function, read-out: t1/2 in plasma, arithmetic mean [min, max] (converted)): 6.4 h
- half-life ([9]; human, plasma, po, 150 mg, single oral 150 mg migalastat HCl, severe renal impairment, read-out: t1/2 in plasma, arithmetic mean [min, max] (converted)): 32.3 h
- Plasma migalastat concentration ([9]; non-Fabry, moderate impairment, Pre-dose (0 h), same value as 48 h): 64.5 ng/mL
- CL/F ([9]; single 150 mg migalastat HCl, non-Fabry, Mild (N = 8)): 10.3 L/h
- CL/F ([9]; single 150 mg migalastat HCl, non-Fabry, Moderate (N = 8)): 6.68 L/h
- CL/F ([9]; single 150 mg migalastat HCl, non-Fabry, Normal (N = 8)): 12.1 L/h
- CL/F ([9]; single 150 mg migalastat HCl, non-Fabry, Severe (N = 8)): 2.67 L/h
- Incidence of adverse events ([9]; single 150 mg migalastat HCl, all renal function groups): comparable across all renal function groups
- increase of mean plasma migalastat AUC0-∞ compared to healthy control subjects ([9]; single oral 150 mg migalastat HCl, mild renal impairment): 1.2 fold
- increase of mean plasma migalastat AUC0-∞ compared to healthy control subjects ([9]; single oral 150 mg migalastat HCl, moderate renal impairment): 1.8 fold
- increase of mean plasma migalastat AUC0-∞ compared to healthy control subjects ([9]; single oral 150 mg migalastat HCl, severe renal impairment): 4.5 fold
- LVMi, change from baseline, mean ± SE ([10]; renal subgroup 30 to < 60): −10.2 ± 2.4 gm^2
- LVMi, change from baseline, mean ± SE ([10]; renal subgroup ≥60): −4.8 ± 2.3 gm^2
- effect on cardiac repolarization [11]: negative
- LVMi, change from baseline, mean ± SE [12, 13]: −5.5 ± 10.0 gm^2
- LVMi, change from baseline, mean ± SE [12, 14]: −9.2 ± 5.8 gm^2
- LVMi, change from baseline, mean ± SE [12, 15]: −21.0 ± 14.1 gm^2
- LVMi, change from baseline, mean ± SE [12, 16]: −3.2 ± 5.6 gm^2
